Consider four compounds from PubChem BioAssay AID1745844 (Carcinogenic Potency Database (CPDB), 2022).

SMILES strings stand for the structures. The source made the active and inactive calls. No rule for the calls is given here.

The test system of this data set is rodent lifetime carcinogenesis bioassay, tumor incidence TD50. Put plainly: chronic cancer bioassays in animals – CPDB, compiled studies (AID 1745844).

For the compound `O=C(O)C1=NN(c2ccc(S(=O)(=O)O)cc2)C(=O)C1N=Nc1ccc(S(=O)(=O)O)cc1` (stereo unspecified), the TD50 (mouse, strain Charles River CD1, females, in feed, site: all sites, lesion: malignant lymphoma, lymphocytic type, dosed 104 weeks, study length 104 weeks) is 1430 mg/kg/day (inactive); the TD50 (mouse, strain Charles River CD1, females, in feed, site: any site (literature study), lesion: malignant tumor, dosed 104 weeks, study length 104 weeks) was 1560 mg/kg/day (inactive); the TD50 (mouse, strain Charles River CD1, females, in feed, site: liver, lesion: hepatocellular adenoma, dosed 104 weeks, study length 104 weeks) was 200000 mg/kg/day (inactive); the TD50 (mouse, strain Charles River CD1, males, in feed, site: all sites, lesion: malignant lymphoma, lymphocytic type, dosed 104 weeks, study length 104 weeks) is 11800 mg/kg/day (inactive); the TD50 (mouse, strain Charles River CD1, males, in feed, site: any site (literature study), lesion: benign tumor, dosed 104 weeks, study length 104 weeks) was 388 mg/kg/day (inactive); the TD50 (mouse, strain Charles River CD1, males, in feed, site: any site (literature study), lesion: malignant tumor, dosed 104 weeks, study length 104 weeks) was 1810 mg/kg/day (inactive). Further, the TD50 reads like this: (mouse, strain Charles River CD1, males, in feed, site: liver, lesion: hepatocellular adenocarcinoma, dosed 104 weeks, study length 104 weeks) 61100 mg/kg/day (inactive); (mouse, strain Charles River CD1, males, in feed, site: liver, lesion: hepatocellular adenoma, dosed 104 weeks, study length 104 weeks) 2150 mg/kg/day (inactive); (mouse, strain Charles River CD1, males, in feed, site: lung, lesion: alveolar/bronchiolar adenoma, dosed 104 weeks, study length 104 weeks) 42500 mg/kg/day (inactive); (rat, strain F344/DuCrj, females, in drinking water, site: uterus, lesion: endometrial stromal polyp, dosed 104 weeks, study length 112 weeks) 5780 mg/kg/day (inactive); (rat, strain F344/DuCrj, males, in drinking water, site: abdominal cavity, lesion: mesothelioma, dosed 104 weeks, study length 112 weeks) 2820 mg/kg/day (inactive); (rat, strain Osborne-Mendel, both sexes, in feed, site: liver, lesion: adenoma, dosed 104 weeks, study length 104 weeks) 231000 mg/kg/day (inactive). Also, the carcinogen call was “negative (inactive)” (mouse, strain Charles River CD1, females, in feed, site: any site (literature study), lesion: benign tumor, dosed 104 weeks, study length 104 weeks); “negative (inactive)” (mouse, strain Charles River CD1, females, in feed, site: liver, lesion: hepatocellular adenocarcinoma, dosed 104 weeks, study length 104 weeks); “negative (inactive)” (mouse, strain Charles River CD1, females, in feed, site: lung, lesion: alveolar/bronchiolar adenocarcinoma, dosed 104 weeks, study length 104 weeks); “negative (inactive)” (mouse, strain Charles River CD1, females, in feed, site: lung, lesion: alveolar/bronchiolar adenoma, dosed 104 weeks, study length 104 weeks); “negative (inactive)” (mouse, strain Charles River CD1, males, in feed, site: lung, lesion: alveolar/bronchiolar adenocarcinoma, dosed 104 weeks, study length 104 weeks); “negative (inactive)” (rat, strain F344/DuCrj, females, in drinking water, site: any site (literature study), lesion: one or several types, types not named, dosed 104 weeks, study length 112 weeks). In addition, the carcinogen call by setting is: (rat, strain F344/DuCrj, females, in drinking water, site: liver, lesion: neoplastic nodule, dosed 104 weeks, study length 112 weeks) “negative (inactive)”; (rat, strain F344/DuCrj, males, in drinking water, site: any site (literature study), lesion: one or several types, types not named, dosed 104 weeks, study length 112 weeks) “negative (inactive)”; (rat, strain F344/DuCrj, males, in drinking water, site: liver, lesion: hepatocellular carcinoma, dosed 104 weeks, study length 112 weeks) “negative (inactive)”; (rat, strain F344/DuCrj, males, in drinking water, site: liver, lesion: neoplastic nodule, dosed 104 weeks, study length 112 weeks) “negative (inactive)”; (rat, strain Not specified, females, in feed, site: any site (literature study), lesion: several types, types named in the paper, dosed 64 weeks, study length 64 weeks) “negative (inactive)”; (rat, strain Not specified, females, in feed, site: liver, lesion: one or several types, types not named, dosed 64 weeks, study length 64 weeks) “negative (inactive)”. The carcinogen call by setting is: (rat, strain Not specified, males, in feed, site: any site (literature study), lesion: several types, types named in the paper, dosed 64 weeks, study length 64 weeks) “negative (inactive)”; (rat, strain Not specified, males, in feed, site: liver, lesion: one or several types, types not named, dosed 64 weeks, study length 64 weeks) “negative (inactive)”; (rat, strain Osborne-Mendel, both sexes, in feed, site: any site (literature study), lesion: malignant tumor, dosed 104 weeks, study length 104 weeks) “negative (inactive)”; (rat, strain Osborne-Mendel, both sexes, in feed, site: any site (literature study), lesion: several types, types named in the paper, dosed 104 weeks, study length 104 weeks) “negative (inactive)”.
On to `ClC1(Cl)C2(Cl)C3C4(Cl)C1(Cl)C1(Cl)C4(Cl)C(Cl)(Cl)C3(Cl)C21Cl` (stereo unspecified), for which the TD50 is 6.68 mg/kg/day (rat, strain Sprague-Dawley, males, in feed, site: liver, lesion: neoplastic nodule, dosed 91 weeks, study length 91 weeks) and 1.46 mg/kg/day (rat, strain Sprague-Dawley, males, in feed, site: thyroid gland, lesion: adenoma, dosed 91 weeks, study length 91 weeks).
As to `Nc1ccc(-c2ccc(N)c(Cl)c2)cc1Cl`, the carcinogen call is “positive” (dog, strain Beagle, females, given by capsule, site: liver, lesion: several types, types named in the paper, dosed 369 weeks, study length 370 weeks); “positive” (dog, strain Beagle, females, given by capsule, site: urinary bladder, lesion: several types, types named in the paper, dosed 369 weeks, study length 370 weeks); “positive” (mouse, strain ICR/Jcl, males, in feed, site: liver, lesion: hepatoma, dosed 52 weeks, study length 52 weeks); “negative (inactive)” (rat, strain Charles River CD (Sprague-Dawley), females, in feed, site: liver, lesion: one or several types, types not named, dosed 69 weeks, study length 69 weeks); “negative (inactive)” (rat, strain Charles River CD (Sprague-Dawley), males, in feed, site: liver, lesion: one or several types, types not named, dosed 69 weeks, study length 69 weeks). Besides, the TD50 was 18.3 mg/kg/day (rat, strain Charles River CD (Sprague-Dawley), females, in feed, site: mammary gland, lesion: adenocarcinoma, dosed 69 weeks, study length 69 weeks); 60.1 mg/kg/day (rat, strain Charles River CD (Sprague-Dawley), males, in feed, site: Zymbal's gland, lesion: squamous-cell carcinoma, dosed 69 weeks, study length 69 weeks); 66.2 mg/kg/day (rat, strain Charles River CD (Sprague-Dawley), males, in feed, site: all sites, lesion: granulocytic leukemia, dosed 69 weeks, study length 69 weeks); 69.6 mg/kg/day (rat, strain Charles River CD (Sprague-Dawley), males, in feed, site: mammary gland, lesion: adenocarcinoma, dosed 69 weeks, study length 69 weeks).
For the compound `CCN(CC)C(=S)[S-].CCN(CC)C(=S)[S-].[Zn+2]`, the carcinogen call by setting is: (mouse, strain B6AKF1, females, oral dosing, site: any site (literature study), lesion: several types, types named in the paper, dosed 76 weeks, study length 76 weeks) “negative (inactive)”; (mouse, strain B6AKF1, females, oral dosing, site: liver, lesion: hepatoma, dosed 76 weeks, study length 76 weeks) “negative (inactive)”; (mouse, strain B6AKF1, females, oral dosing, site: lung, lesion: adenoma, dosed 76 weeks, study length 76 weeks) “negative (inactive)”; (mouse, strain B6AKF1, males, oral dosing, site: lung, lesion: adenoma, dosed 76 weeks, study length 76 weeks) “negative (inactive)”; (mouse, strain B6C3F1, females, oral dosing, site: any site (literature study), lesion: one or several types, types not named, dosed 76 weeks, study length 76 weeks) “negative (inactive)”; (mouse, strain B6C3F1, females, oral dosing, site: liver, lesion: hepatoma, dosed 76 weeks, study length 76 weeks) “negative (inactive)”. Further, the carcinogen call (mouse, strain B6C3F1, females, oral dosing, site: lung, lesion: several types, types named in the paper, dosed 76 weeks, study length 76 weeks) is “negative (inactive)” and the carcinogen call (mouse, strain B6C3F1, males, oral dosing, site: liver, lesion: hepatoma, dosed 76 weeks, study length 76 weeks) is “negative (inactive)”. Further, the TD50 reads like this: (mouse, strain B6AKF1, males, oral dosing, site: any site (literature study), lesion: several types, types named in the paper, dosed 76 weeks, study length 76 weeks) 86.7 mg/kg/day (inactive); (mouse, strain B6AKF1, males, oral dosing, site: liver, lesion: hepatoma, dosed 76 weeks, study length 76 weeks) 205 mg/kg/day (inactive); (mouse, strain B6C3F1, males, oral dosing, site: any site (literature study), lesion: several types, types named in the paper, dosed 76 weeks, study length 76 weeks) 28.5 mg/kg/day (inactive); (mouse, strain B6C3F1, males, oral dosing, site: lung, lesion: adenoma, dosed 76 weeks, study length 76 weeks) 46.2 mg/kg/day (inactive).
